Assay [1] has as its system HMVII (NRAS^Q61K) melanoma cell line. Description: HMVII CDX model (melanoma with an NRAS mutation): tumor growth. It is filed as in vivo, mouse. The note with it: for Tumor growth compared to the control group (in words): HMVII model, daily treatment; for Mean TGI: daily, based on relative tumor volume on day 14. The method, then:
1.1. Test compound: BI853520, which was synthesized according to the method in the patent WO2010058032. BI853520 was formulated with 0.5% hydroxyethyl cellulose (Ashland).
1.2. Cells: The melanoma cell line GAK was purchased from JCRB Cell Bank, and HMVII cells were purchased from Sigma. GAK originated in the inguinal lymph nodes of patients with vaginal melanoma, whereas HMVII originated in primary vaginal melanoma. GAK and HMVII cells were cultured in tissue culture flasks containing 5% CO2 at 37° C. The media were Ham's F12 containing 10% heat-inactivated FBS and Ham's F10 containing 15% FBS, respectively. All media were supplemented with 100 U/mL penicillin, […] streptomycin, and 2 mM GlutaMAX. All cell culture reagents were purchased from GIBCO.
Both HMVII and GAK cell lines carried an NRAS mutation at the Q61 position. HMVII (NRAS^Q61K) and GAK (NRAS^Q61L)
1.3. Mice: 4-week-old female balb/c nude mice (purchased from Beijing Vital River Laboratory Animal Technology Co., Ltd.). After arriving in the animal room, the mice were allowed to acclimate to the new environment for at least 2 weeks before being used for assay. The animals were housed under standard conditions (temperature: 21.5±1.5° C., humidity: 55±10%). A Standard diet and autoclaved tap water were provided ad libitum. All animal care and experimental procedures were performed in accordance with the animal care ethics guidelines approved by the Medical Ethics Committee of Beijing Cancer Hospital and Research Institute.
To establish subcutaneous tumors, HMVII and GAK cells were harvested by trypsinization, centrifuged, washed and resuspended in ice-cold PBS+5% FCS. Then 100 l of the cell suspension containing 5×10^6 cells was injected subcutaneously into the right flank of nude mice (1 site per mouse). When tumors were well established and reached a median volume of approximately 400-600 mm^3, mice were randomly assigned to the treatment group and the control group.
1.5. Administration: BI 853520 was formulated in 0.5% hydroxyethyl cellulose, which was intragastrically administered through gavage needle every day, and the dosage was 10 mL/Kg body weight.
Tumor diameters were measured twice a week with calipers. The volume [mm^3] of each tumor was calculated according to the equation “tumor volume=length×diameter^2×π/6”. Animals were sacrificed at the end of the study (approximately two weeks after the start of treatment). During the study, animals with necrotic tumors or tumors exceeding 2000 mm^3 in size were sacrificed for ethical reasons.
Tumor volumes were statistically assessed at the end of the assay. For tumor volume, relative values were used.
The number of observations, and the median, minimum and maximum tumor volumes were calculated. For a quick overview of possible treatment effects, the following metrics were calculated: • Relative tumor volume: (T/C)
[formula] • TGI from day 1 to day d: TGI=100×[(Cd−C1)−(Td−T1)]/(Cd−C1) • wherein, C1, T1=mean relative tumor volume in control and treatment groups at the start of the assay (day 1); • Cd, Td=mean relative tumor volume in control and treatment groups at the end of the assay (day d).
Statistical evaluation was performed using the Student's t-test function in Microsoft Excel, using two-tailed distribution and two-sample equal variance type.
The significance level was fixed at α=5%. […]

Assay [2] relates to Ba/F3-NRAS^G12D cell line. The experiment in a line: Antiproliferative test (CellTiter Glo, 48 hours) in NRAS^G12D-transfected Ba/F3 cells. It is filed as cell-based, murine. The note with it: for IC50: Mus musculus. As to the method: The Ba/F3 cell line was obtained from ATCC in 2009, and cultured according to a method described in Zhang X Ren R. Bcr-abl efficiently induces a myeloproliferative disease and production of excess interleukin-3 and granulocyte-macrophage colony-stimulating factor in mice: A novel model for chronic myelogenous leukemia. Blood., 1998, 92: 3829-40. Growth factor-dependent BA/F3 cells were cultured in RPMI 1640 including 10% FBS and supplemented with 15% WEHI-3 conditioned medium or recombinant IL-3 (Roche) as a source of IL-3 at a final concentration of 1 ng/ml. […] Cancer Res., 2007, 67: 7139-46 and Fredericks J, Ren R. The role of RAS effectors in BCRIABL induced chronic myelogenous leukemia. Front Med China., 2013, 7: 452-61. Upon receipt of the original stock, cells were expanded and frozen at a low passage rate (<3). Frozen cells were thawed and used in this study, with cell passages limited to 15 for all experimental procedures. All cells were tested regularly to ensure freedom and maintenance in a normal state of mycoplasma.
NRAS^G12D-transfected Ba/F3 (Ba/F3-N) or KRAS^G12D-transfected Ba/F3 ([…]) cells were seeded into 96-well cell culture cluster plate in 100 μL of medium at a density of 5,000 cells per well. BI853520 was diluted 3-fold with RPMI 1640 at 9 points, and added according to the volume of each well, starting at 10 μmol/L to reach a 3-fold concentration gradient (final solvent concentration <1/1000). PD0325901 was used as a positive control. After 48 hours of incubation, cell viability was measured using CellTiter Glo (Promega). Luminescence was detected using an Envision plate reader (PerkinElmer). The calculation method of Z factor was as described in Zhang J H, Chung T D Y, Oldenburg K R. A simple statistical parameter for use in evaluation and validation of high throughput screening assays. J Biomol Screen., 1999, 4: 67-73, and the following analysis only used data with Z factor >0.6. […]
(ATP-based viability assays read luminescence as a measure of living cells.)

SMILES strings stand for the structures. Read-outs that look alike come from different tables or passages of the source.

In general, IC50 refers to the concentration that inhibits the measured activity by half.

Take `COc1cc(C(=O)NC2CCN(C)CC2)c(F)cc1Nc1ncc(C(F)(F)F)c(Oc2cccc3c2C(=O)N(C)C3)n1` [BI853520]: the results for the “Tumor growth compared to the control group (in words)” value in assay [1] and in assay [1] (listed as BI 853520) were “inhibit tumor growth” and “delayed tumor growth”, respectively. In assay [1] (HMVII, 50 mg/kg (1st week), 25 mg/kg (2nd week), daily gavage, day 14), this compound returned a Mean tumor volume of 671 ± 606 mm^3. The “Mean TGI” value was 60% in assay [1] (HMVII, 50 mg/kg (1st week), 25 mg/kg (2nd week)) and 60% in assay [1] (HMVII, 50 mg/kg (1st week), 25 mg/kg (2nd week), listed as BI 853520). Also, the “Increase of IC50 after addition of IL-3” value in assay [2] (+ IL-3 versus − IL-3) is “more than 4 fold”. Moreover, the IC50 was 15 µM in assay [2] (BaF3, after addition of IL-3, 48 hours, read-out: IC50 (antiproliferative effect), + IL-3) and 3.4 µM in assay [2] (BaF3, without IL-3, 48 hours, read-out: IC50 (antiproliferative effect), − IL-3).

Values taken from patent US12257251B2, “Use of FAK inhibitor in preparation of drug for treating tumors having NRAS mutation” (INXMED (NANJING) CO., LTD., priority 2019, dated 2025).
